We go through two compounds from patent US20260199284A1, “SPECIFIC VASH COMPOUNDS (SVC) INHIBITORS FOR HEART DISEASES” (MT ACT, priority 2023, published 2026).

Structures are written as SMILES. Entries after “also recorded” stand apart in the source; their conditions may differ.

Data set [1] has as its target T1, Human rhinovirus (HRV) type 14 3C protease (Human rhinovirus 14, UniProt P03303).
T1 construct: Assay using active recombinant Human rhinovirus (HRV) type 14 3C protease
As to the kind of experiment: HRV type 14 3C protease assay. The format is biochemical. Particulars: increasing dose. From the text: FIG. 7: Assay using active recombinant Human rhinovirus (HRV) type 14 3C protease Cysteine in absence (neg) or presence (increasing dose) of SVC_01. HRV is a protease with preference for non-aromatic residues at P1′. The optimum recognition site for Human rhinovirus (HRV) type 14 3C protease is LEVLFQ/GP, with a glycine at the P1′ position.
Below, the criteria for selection are detailed: • Protease with documented carboxypeptidase activity towards alpha tubulin. Carboxypeptidase A hydrolyzes peptide bonds of C-terminal residues with aromatic or aliphatic side-chains (FIG. 6). • Cysteine protease with preference for non-aromatic residues at P1′. The optimum recognition site for Human rhinovirus (HRV) type 14 3C protease is LEVLFQ/GP, with a glycine at the P1′ position (FIG. 7). • Cysteine protease with preference for aromatic residues at P1′ site. Alike VASH, cathepsin B prefers an aromatic residue at the P1′ position. This is considered to be our best control for specificity (FIG. 8)

The subject of the next data set is mitochondrial activity. Briefly: Seahorse Cell Mito Stress Test. The settings on record: 20 μM. Type of data set: cell-based. How it is done: FIG. 10: Mitochondrial activity assays using the Agilent Seahorse Cell Mito Stress Test kit in absence or presence of SVC_01 [20 μM]. This assay is the widely recognized, well-accepted standard assay for assessing energetic mitochondrial function. Multiple parameters are obtained in this one assay including, basal respiration, ATP-linked respiration, maximal and reserve capacities, and non-mitochondrial respiration. The assay provides insights into the mechanism of mitochondrial dysfunction and allow users to investigate functional differences among cell types, drug candidates, and genetic or biochemical interventions.
Next, we performed safety pharmacology experiments and head-to-head compared the cellular toxicity of SVCs on human cells. For our comparison we used microtubule binding agents including Parthenolide that previously was coined as an inhibitor of detyrosination (Fonrose et al., 2007). This compound was latter shown to disrupt microtubules by non-specific binding to tubulin in the molecular structure (Hotta T. et al., 2021). […] Mitochondrial health was assayed using the Seahorse equipment XF. […] No mitochondrial defects were measured at 20 micromolar concentration of our VASH inhibitor (FIG. 10). […]

Data set [2] concerns primary cardiomyocytes isolated from Sprague Dawley rats. Briefly: Western blot of detyrosinated tubulin in primary cardiomyocytes. The format is cell-based, rat. How it is done: A) Representative western blot and B) quantification of detyrosinated and alpha-tubulin levels after 2 hrs 37° C. incubation of freshly isolated adult rat cardiomyocytes with compound SVC_01 at indicated concentrations. N=4 Sprague Dawley rats.
Primary adult ventricular cardiac myocytes were isolated from 6 to 8 weeks old Sprague Dawley rats or 20 to 30 weeks old WKY, ZSF1 lean and obese rats. Briefly, the heart was removed from a rat anesthetized under isoflurane and retrograde-perfused on a Langendorff apparatus with a collagenase solution. The digested heart was then minced and triturated using a glass pipette. The resulting supernatant was separated and centrifuged at 300 revolution per minute (rpm) to isolate cardiomyocytes which were then resuspended in rat cardiomyocyte media at low density. Cardiomyocytes were cultured at 37° C. and 5% CO2 with 25 μmol/L of cytochalasin D. Rat cardiomyocyte media: medium 199 (Thermo Fisher 115090) supplemented with 1× Insulin-transferrin-selenium-X (Gibco 51500056), 1 μg μl^−1 primocin (Invivogen ant-pm-1), 20 mmol/L HEPES at pH 7.4 and 25 μmol/L cytochalasin D.
For whole cell protein extraction, isolated rat cardiomyocytes were lysed in RIPA buffer (Cayman #10010263) supplemented with protease and phosphatase Inhibitor cocktail (Cell Signaling #5872S) on ice for 1 hour. […] All samples were run in duplicates and analyzed in reference to GAPDH.

In data set [3] the test system is cardiomyocytes of obese ZSF1 rats. Briefly: Unloaded shortening contractility of HFpEF myocytes. The format is cell-based, rat. The settings on record: 30-weeks aged obese ZSF1 rats, 2-hours treatment. How it is done: FIG. 16: Improved contraction and relaxation kinetics of HFpEF myocytes during unloaded shortening upon VASH inhibition or TTL overexpression in primary cardiomyocytes isolated from WKY, ZSF1-Lean, or ZSF1 Obese rats. A) Contraction amplitude, B) contraction time, and C) relaxation time in isolated rat cardiomyocytes. n=~90 myocytes per group from N=3 ZSF1 Lean or Obese rats; n=60 myocytes from N=2 WKY rats. Two-way ANOVA with factors of genotype and treatment.
Contractility was measured in a custom-fabricated cell chamber (IonOptix) mounted on an LSM Zeiss 880 inverted confocal microscope using either a 40 or 63× oil 1.4 numerical aperture objective and transmitted light camera (IonOptix MyoCam-S). Experiments were conducted at room temperature and field stimulation was provided at 1.0 Hz with a cell stimulator (MyoPacer, IonOptix). After 10-30 seconds of pacing to achieve steady state, five traces were recorded and analyzed. Sarcomere length was measured optically by Fourier transform analysis (IonWizard, IonOptix).

In the next data set the test system is Swiss mice. As to the kind of experiment: Organ histology (Hematoxylin and Eosin) after systemic treatment. Type of data set: in vivo, mouse. From the text:
To further ascertain the safety profile of the compounds in an animal model, we administered SVC-02 to Swiss mice and analysed by immunohistological description different organ structures including kidney, heart and lung.

T1 sequence (P03303 1538-1719): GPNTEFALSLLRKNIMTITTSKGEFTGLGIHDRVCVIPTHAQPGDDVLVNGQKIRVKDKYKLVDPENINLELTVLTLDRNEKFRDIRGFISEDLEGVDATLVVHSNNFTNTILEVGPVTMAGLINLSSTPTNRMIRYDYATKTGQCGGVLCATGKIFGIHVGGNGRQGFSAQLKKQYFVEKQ
Description for human cells: FIG. 9: Cell viability assay comparing microtubule binding drugs (Parthenolide, Taxol) to SVC_01 exposure on human cells. The MTT assay is used to measure cellular metabolic activity as an indicator of cell viability, proliferation and cytotoxicity. This colorimetric assay is based on the reduction of a yellow tetrazolium salt (3-(4,5-dimethylthiazol-2-yl)-2,5-diphenyltetrazolium bromide or MTT) to purple formazan crystals by metabolically active cells.

For `O=C(O)CCC[C@H](NC(=O)[C@H]1O[C@@H]1C(=O)C[C@@H](Cc1ccc(OCc2ccccc2)cc1)C(=O)O)C(=O)NCCc1ccccc1` [SVC_01], the “inhibition of HRV type 14 3C protease” value in data set [1] is “does not reduce activity”. In the data set with mitochondrial activity, the mitochondrial activity entry was “does not alter mitochondrial activity”. In addition, the “reduction of tubulin detyrosination” value in data set [2] (2 hours incubation, Sprague Dawley rat cardiomyocytes) is on record as ~80%. Moreover, in data set [2] (2 hrs 37° C., indicated concentrations), the “reduction in detyrosination” value is given as “Dose-dependent reduction in detyrosination”. Moreover, the “contraction and relaxation kinetics” value in data set [3] is “Both contraction and relaxation kinetics were improved”. Also, the “cell viability / proliferation (MTT)” value in the data set on human cells is recorded as “does not impact cell proliferation”.

Turning to `CCOC(=O)[C@H](Cc1ccc(OCC)cc1)NC(=O)[C@H]1O[C@@H]1C(=O)N[C@@H](Cc1ccc(OCC)cc1)C(=O)OCC` [SVC_02], in the data set with Swiss mice, the “organ structure (kidney, heart and lung) histology” value is “normal appearance of different organs; also recorded: did not alter organ structure”.
